For the assay, the system named is rat model of fibromyalgia pain (reserpine-induced mechanical allodynia). The assay is described as follows: Mechanical allodynia (von Frey 50% response threshold) in reserpine-induced rat model of fibromyalgia pain. Format: in vivo. From the text: The purpose of the study is to assess the efficacy of the described compounds in the rat model of fibromyalgia pain.
Animals were assigned to treatment groups based on Day 0 pre-dose von Frey 50% response thresholds so that group means of the mean paw withdrawal latencies were approximately equal. Animals were ranked by pre- and post-reserpine baseline change from lowest to highest, and treatments were assigned randomly within stratified sub-groups according to the total number of treatment groups in the study.
The animals were dosed in sequence based on animal number, so that the distribution of treatment across a given set of animals was not predictable.
Mechanical fibromyalgia-associated allodynia is measured using […] (Stoelting©; Wood Dale, Ill., USA) with varying stiffness (0.04, 0.07, 0.16, 0.4, 1.0, 4.0, and 8.0 g) according to the up-down method 1. Animals were placed in individual acrylic chambers on a metal mesh surface and allowed to acclimate to their surroundings for a minimum of 15 minutes before testing. Each filament was presented perpendicular to the plantar surface with sufficient force to cause slight buckling against the paw and held for approximately 4 seconds or until a positive response is noted (paw sharply withdrawn). Testing was initiated with the 0.4 g filament. In the absence of a paw withdrawal response, the next stronger stimulus was presented. In the event of paw withdrawal, the next weaker stimulus was used. This process was repeated until 4 responses after the initial change in response (no response to positive response or positive response to no response) were obtained. […] The 50% response threshold is calculated using the formula:
50% response threshold (g)=(10(Xf+kδ))/10,000
• Pre-Injury mechanical fibromyalgia-associated allodynia testing (vF) • Reserpine injection
• Mechanical fibromyalgia-associated allodynia testing (vF; time baseline) • Dosing (time 0 min) • Mechanical fibromyalgia-associated allodynia testing (vF; time ˜1 hour) • Mechanical fibromyalgia-associated allodynia testing (vF; time ˜2 hour) • Mechanical fibromyalgia-associated allodynia testing (vF; time ˜4 hour) • Euthanasia
Pain was induced by three daily doses of 1 mg/kg reserpine, and mechanical fibromyalgia-associated allodynia was assessed using von Frey filaments. Mechanical fibromyalgia-associated allodynia was measured prior to and the first reserpine injection and 4 days following the third injection. GABAA receptor modulators (0.3 or 3 mg/kg), pregabalin (30 mg/kg) or vehicle (0.5% methylcellulose) were administered 4 days after the last reserpine injection, with mechanical fibromyalgia-associated allodynia being assessed prior to, and at 1, 2, and 4 hours post-administration to determine the efficacy of GABAA receptor modulators in this model.

“Also recorded” adds a separate entry of the source.

Consider `CC(C)(O)c1cnn2c(-c3ccc(F)c(-c4c(F)cccc4C#N)c3)cnc2n1` [Compound 1], for which the “Mean Paw Response Thresholds” value runs as follows: (0.3 mg/kg PO group, Day 0, Baseline (post-reserpine, before dosing)) 3.68 g; (0.3 mg/kg PO group, Pre-reserpine (before dosing)) 14.50 g; (0.3 mg/kg PO, Day 0, 1 hr post-dosing) 6.52 g; (0.3 mg/kg PO, Day 0, 2 hr post-dosing) 8.36 g; (0.3 mg/kg PO, Day 0, 4 hr post-dosing) 7.96 g; (3 mg/kg PO group, Day 0, Baseline (post-reserpine, before dosing)) 3.82 g. The “Mean Paw Response Thresholds” value by setting is: (3 mg/kg PO group, Pre-reserpine (before dosing)) 14.01 g; (3 mg/kg PO, Day 0, 1 hr post-dosing) 6.08 g; (3 mg/kg PO, Day 0, 2 hr post-dosing) 7.98 g; (3 mg/kg PO, Day 0, 4 hr post-dosing) 7.54 g.
As to `CC(C)C[C@H](CN)CC(=O)O` [pregabalin, reference compound], the “Mean Paw Response Thresholds” value reads like this: (30 mg/kg PO group, Day 0, Baseline (post-reserpine, before dosing)) 3.84 g; (30 mg/kg PO group, Pre-reserpine (before dosing)) 14.55 g; (30 mg/kg PO, Day 0, 1 hr post-dosing) 9.34 g; (30 mg/kg PO, Day 0, 2 hr post-dosing) 10.17 g; (30 mg/kg PO, Day 0, 4 hr post-dosing) 10.23 g. Also, the “Reversal of reserpine-induced mechanical fibromyalgia-associated allodynia (response thresholds)” value (30 mg/kg PO, 1, 2 and 4 hour time points) is “significantly increased median response thresholds at all of the time points following dosing; also recorded: significantly reversed mechanical fibromyalgia-associated allodynia”.

For the origin of these results see patent publication US20220152037A1, “USE OF GABAA RECEPTOR MODULATORS FOR TREATMENT OF PAIN” (NEUROCYCLE THERAPEUTIC, INC., priority 2019, published 2022).
